Patent US20030219491A1, “Compositions for inhibiting tumor growth and methods thereof” (priority 2002, published 2003)

Columns and labels:
[1] = biological target: polyhemoglobin-tyrosinase complex (bovine hemoglobin crosslinked with mushroom tyrosinase) (Bos taurus, UniProt P01966+P02070); settings: crosslink time 24 h; versus pure bovine hemoglobin in free form
[2] = tested on: tyrosinase from mushroom, free (1020 U/3 ml); experiment: Vmax and Km of free tyrosinase; type: biochemical; settings: substrate tyrosine
From the text: (§1) L-tyrosine (98% TLC), hemoglobin from bovine (lyophilized powder), hemoglobin assay kit, tyrosinase from mushroom (3400 U/mg manufacturer's stated activity) were purchased from Sigma-Aldrich (Oakville, Canada). Collodion was obtained from Fisher Scientific (Nepean, Canada). Glutaraldehyde (25%) was obtained from Polyscienes (Warrington, Pa.). Purified bovine hemoglobin was purchased from Biopure Corporation (Boston, Mass.). All other reagents were of analytical grade.
This is to characterize the enzyme kinetics of the preparation and comparing this encapsulated tyrosinse preparation to free tyrosinase.

[3] = tested on: tyrosinase from mushroom, encapsulated (1020 U/3 ml); experiment: Apparent Vmax and apparent Km of encapsulated tyrosinase; type: biochemical; settings: substrate tyrosine
From the text: as §1
One gram hemoglobin and 200 mg […] was dissolved in 10 ml double distilled deionized water. Stir with a metal rod until everything is dissolved. Gravity filter the solution through a Waterman #42 filter into a Erlenmeyer flask. Take 2.5 ml of this 10 g/dl hemoglobin solution and was encapsulated within spherical, ultrathin, cellulose nitrate membrane. Without tyrosinase loaded microcapsules were administrated orally to control group. For tyrosinase loaded microencapsules, […] of 3400 U/mg tyrosinase was dissolved in 2.5 ml 10% hemoglobin solution, then followed the methods described above to immobilize tyrosinase in collodion membrane microcapsules. Microcapsules prepared as a 50% suspension for later feeding. […]
Next, the apparent Vmax and apparent Km value for encapsulated tyrosinase (1020 U/3 ml) were studied. The leakage of encapsulated tyrosinase is also measured.

Chain of polyhemoglobin-tyrosinase complex (bovine hemoglobin crosslinked with mushroom tyrosinase) (P01966 whole entry): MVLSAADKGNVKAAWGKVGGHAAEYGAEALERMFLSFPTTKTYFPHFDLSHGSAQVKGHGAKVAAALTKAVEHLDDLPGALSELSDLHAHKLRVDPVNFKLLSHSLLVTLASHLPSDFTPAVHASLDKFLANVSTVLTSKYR
Chain of polyhemoglobin-tyrosinase complex (bovine hemoglobin crosslinked with mushroom tyrosinase) (P02070 whole entry): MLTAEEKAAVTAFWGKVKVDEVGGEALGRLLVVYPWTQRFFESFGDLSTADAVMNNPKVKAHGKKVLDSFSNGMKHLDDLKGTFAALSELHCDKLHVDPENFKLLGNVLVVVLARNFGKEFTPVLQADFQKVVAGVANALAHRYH

Row | Structure (SMILES) | P50 (oxygen dissociation), difference from free hemoglobin [1] | Vmax [2] [mg/dl · min] | Apparent Vmax [3] [mg/dl · min] | Km [3] [µM]
1 | O=O [oxygen] | no significant difference |  |  | 
2 | N[C@@H](Cc1ccc(O)cc1)C(=O)O [tyrosine, L-tyrosine] |  | 114.94 | 49.02 | 465
